In US7851606B2, “Negatively charged minor groove binders” (Elitech Holding B.V., priority 2002, dated 2010):
{CDPI3-SO3} = negatively charged sulfonated CDPI3 minor groove binder; {CDPI4-(SO3)2} = disulfonated CDPI4 minor groove binder; {CDPI3(C)} = code of the source, not defined here; {CDPI3(N)} = code of the source, not defined here

What was measured:
[1] = test system: complementary targets that contain A/C mismatch at positions 5, 6, 7 and 8; assay: Mismatch discrimination of oligonucleotide conjugates 5′-CCAAAATTAC-X^11-3′ hybridized to complementary targets (Example 4); format: binding; settings: for ΔΔG° between match and mismatch: calculated at 50° C.
Procedure: This example illustrates conjugates of the present invention to perform mismatch discrimination.
Oligonucleotide conjugates 5′-CCAAAATTAC-X^11-3′ (SEQ ID NO:1), where X ^11 is a minor groove binder of FIG. 1, were hybridized to different complementary targets that contain A/C mismatch at positions 5, 6, 7 and 8, relative to the attached minor groove binder.
The relative free energy difference (ΔΔG°) between match and mismatch at positions 5, 6, 7 and 8 were calculated at 50° C. and are listed in Table below. The ΔΔG° values were calculated as described in U.S. application Ser. No. 09/796,988.
Table of ΔΔG° between match and mismatch calculated at 50° C. for different conjugates.

[2] = test system: matched complement of ODN # 1; assay: Thermodynamic properties / mismatch discrimination of 3′-conjugated GGTTTTAATG-X″ sequences (Example 5, FIG. 2); format: binding; settings: C/A mismatch at positions 5, 6, 7 and 8; 50° C.; PCR buffer; oligonucleotide 5×10^−7M; in words
Procedure: Thermodynamic properties of 3′ -conjugated, where X″ represents the attached minor groove binder which is either CDPI3 (C), CDPI3 (N) and CDPI4-(SO3^−)2. The parameters were determined at PCR buffer, where the oligonucleotide concentration was 5×10^−7M. The sequences below were hybridized to matched complement of ODN # 1. The relative free energy difference (ΔΔG°) between match and mismatch at positions 5, 6, 7 and 8 were calculated at 50° C. and plotted in FIG. 2. The bold C base in the sequences indicates the position of the C/A mismatch.

Substance: CDPI3 (C): Oligonucleotide conjugate 5′-CCAAAATTAC-X^11-3′, X^11 being the minor groove binder CDPI3 (C) of FIG. 1 (3' {CDPI3(C)}, sugars by position and backbone not given here)
- ΔΔG° between match and mismatch ([1]; A/C mismatch position 5): 4.87 kcal/mol
- ΔΔG° between match and mismatch ([1]; A/C mismatch position 6): 6.22 kcal/mol
- ΔΔG° between match and mismatch ([1]; A/C mismatch position 7): 6.24 kcal/mol
- ΔΔG° between match and mismatch ([1]; A/C mismatch position 8): 5.52 kcal/mol

Substance: CDPI3 (N): Oligonucleotide conjugate 5′-CCAAAATTAC-X^11-3′, X^11 being the minor groove binder CDPI3 (N) of FIG. 1 (3' {CDPI3(N)}, sugars by position and backbone not given here)
- ΔΔG° between match and mismatch ([1]; A/C mismatch position 5): 5.28 kcal/mol
- ΔΔG° between match and mismatch ([1]; A/C mismatch position 6): 6.32 kcal/mol
- ΔΔG° between match and mismatch ([1]; A/C mismatch position 7): 5.55 kcal/mol
- ΔΔG° between match and mismatch ([1]; A/C mismatch position 8): 5.51 kcal/mol

Substance: CDPI3—SO3^−: Oligonucleotide conjugate 5′-CCAAAATTAC-X^11-3′, X^11 being the negatively charged minor groove binder CDPI3-SO3^− of FIG. 1 (3' {CDPI3-SO3}, sugars by position and backbone not given here)
- ΔΔG° between match and mismatch ([1]; A/C mismatch position 5): 4.26 kcal/mol
- ΔΔG° between match and mismatch ([1]; A/C mismatch position 6): 5.16 kcal/mol
- ΔΔG° between match and mismatch ([1]; A/C mismatch position 7): 5.55 kcal/mol
- ΔΔG° between match and mismatch ([1]; A/C mismatch position 8): 4.32 kcal/mol
- mismatch discrimination performance versus the other conjugates in the Table ([1]; in words): comparable to the other conjugates

Substance: CDPI4-(SO3^−)2: 3′-conjugated oligonucleotide GGTTTTAATG-X″, X″ being the attached minor groove binder CDPI4-(SO3^−)2 (3' {CDPI4-(SO3)2}, sugars by position and backbone not given here)
- mismatch discrimination (ΔΔG° plotted in FIG. 2) [2]: comparable mismatch discrimination
